# Legend:
# [1] = target: T1, Purified recombinant NBD1 (Homo sapiens, UniProt P13569); experiment: Aggregation analysis using differential static light scattering (DSLS): thermal stability of NBD1; assay type: binding; settings: NBD1 0.2 mg/ml; Tagg of compound well minus average Tagg of DMSO control wells
# T1 construct: Purified recombinant NBD1 was produced using previously described methods; made in house
# Method: Purified recombinant NBD1 was produced using previously described methods (A. Schmidt, J. L. Mendoza, P. J. Thomas (2011) Biochemical and Biophysical Approaches to Probe CFTR Structure (365-376) M. D. Amaral, K. Kunzelmann (eds.), Cystic Fibrosis, Methods in Molecular Biology 741, Springer Science+Business Media). The effect of test compounds on thermal stability of NBD1 was evaluated by differential static light scattering (DSLS) using the Harbinger Stargazer-384 instrument (Epiphyte Three, Toronto, Canada). Test compounds were dissolved and diluted to desired concentrations in 100% DMSO. The compounds or DMSO controls (100 nL) were stamped into wells of a […] low volume optical plate (Corning Inc., Corning, NY) using the Echo 555 acoustic liquid handler (Labcyte Inc., San Jose, CA).
# NBD1 protein was diluted to 0.2 mg/ml in S200 buffer (50 mM Tris-HCl, 150 mM NaCl, 5 mM MgCl2, 2 mM ATP, 2 mM DTT, pH7.6) containing 1% glycerol. 10 uL of protein solution was aliquoted into the 384-well plate harboring the test compounds and 10 uL mineral oil was overlaid onto the protein solution, using the epMotion robotic liquid handler (Eppendorf North America, Hauppauge, NY). After placing into the Stargazer instrument, the plate was heated at 1° C. per minute to 70° C. Images were captured from 25° C. to 70° C. every 0.5° C. At the end of the experiment run, instrument software integrated image files and analyzed data automatically. A […] regression curve was generated for each well, representing the increase in light scattering over time. A temperature of aggregation (Tagg) was calculated based on the inflection point of the curve. To better compare data across experiments the average Tagg for DMSO control wells was calculated and subtracted from values for wells containing compounds to obtain a “ΔTagg” value. These ΔTagg values reflect stabilizing efficacy of the compounds. As set forth in Table 2 below, an ΔTagg value less than or equal to 5° C. is marked “A”; a value above 5° C. and less than or equal to 10° C. is marked “B”; a value greater than 10° C. and less than or equal to 25° C. is marked “C”.
# [2] = tested on: Primary human bronchial epithelial cells from a ΔF508 homozygous CF donor (CF-HBE cells); experiment: TECC24 recording of CFTR-mediated transepithelial chloride transport, AUC fold over benchmark VX-809 @10 μM; assay type: cell-based; settings: 48 hours incubation, AUC of forskolin-stimulated IEQ
# Method: The effects of a test agent on CFTR-mediated transepithelial chloride transport is measured using TECC24 recording analysis. Test agents are solubilized in DMSO. Solubilized test agents are mixed with incubation medium containing DMEM/F12, Ultroser G (0.5%; Crescent Chemical, catalog #67042), Hyclone Fetal Clone II (2%; GE Healthcare, catalog #SH30066.02), bovine brain extract (0.25%; Lonza, catalog #CC-4098), insulin ([…]), IL-13 (10 ng/mL), hydrocortisone (20 nM), transferrin ([…]), triiodothyronine (500 nM), ethanolamine (250 nM), epinephrine (1.5 μM), phosphoethanolamine (250 nM), and retinoic acid (10 nM). Primary human bronchial epithelial cells from a ΔF508 homozygous CF donor (CF-HBE cells; from University of North Carolina Cystic Fibrosis Tissue Procurement Center), grown on Transwell HTS 24-well cell culture inserts (Costar, catalog #3378), are exposed to test agents or controls dissolved in incubation medium. The CF-HBE cells are cultured at 36.5° C. for 48 hours before TECC24 recordings are performed in the presence or absence of test agent, a positive control or vehicle (DMSO).
# Following incubation, the transwell cell culture inserts containing the test agent or control-treated CF-HBE cells are loaded onto a TECC24 apparatus (TECC v7 or MTECC v2; EP Design) to record the transepithelial voltage (VT) and resistance (TEER) using 4 AgCl electrodes per well configured in current-clamp mode. The apical and basolateral bath solutions both contain (in mM) 140 NaCl, 5 KCl, 2 CaCl2), 1 MgCl2, 10 Hepes, and 10 glucose (adjusted to pH 7.4 with NaOH). To inhibit basal Na+ absorption, the ENaC inhibitor benzamil (10 μM) is added to the bath. Then, the adenylate cyclase activator, forskolin (10 μM), is added to the bath to activate CFTR. The forskolin-stimulated Cl− transport is halted by addition of CFTR inhibitor-172 (20 μM) to the bath at the end of the experiment to confirm specificity. VT and TEER recordings are digitally acquired at routine intervals using TECC or MTECC software (EP Design). VT and TEER are transformed into equivalent transepithelial Cl− current (IEQ), and the Area Under the Curve (AUC) of the IEQ time course between forskolin and CFTR inhibitor-172 addition is generated using Excel (Microsoft). Efficacy is expressed as the ratio of the test agent AUC divided by vehicle AUC. EC50s based on AUC are generated using the non-linear regression log(agonist) vs. response function in Prism software (Graphpad) with HillSlope fixed=1.
# If a test agent increases the AUC of the forskolin-stimulated IEQ relative to VX-809 in CF-HBE cells, and this increase is inhibited by CFTR inhibitor-172, then the test agent is considered a CFTR corrector. TECC assay efficacy is expressed as the ratio of the test agent AUC divided by VX-809 AUC. As set forth in Table 2 below, a TECC value less than 3 is marked “A”; a value between 3 and 6 is marked “B”; a value between 6 and 20 is marked “C”.
# T1 sequence (P13569 423-646 limits assumed): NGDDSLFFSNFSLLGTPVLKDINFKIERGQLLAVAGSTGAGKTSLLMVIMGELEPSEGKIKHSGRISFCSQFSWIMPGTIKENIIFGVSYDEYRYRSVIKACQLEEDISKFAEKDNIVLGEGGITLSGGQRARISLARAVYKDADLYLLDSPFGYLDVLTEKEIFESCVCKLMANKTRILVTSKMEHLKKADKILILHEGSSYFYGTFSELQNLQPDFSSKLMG
Compound,DSLS (ΔTagg) [1],TECC (test agent AUC divided by VX-809 AUC) [2]
"CN1CC(C)(C)COCC(C)(c2cccc(CCC(=O)O)c2)c2cnc([nH]2)-c2cc(ccc2F)Oc2c(F)cc3[nH]ccc3c2CCC1=O (single isomer, unassigned) [Compound 20B, 3-[3-(23,29-Difluoro-6,10,10,12-tetramethyl-13-oxo-8,25-dioxa-3,12,20,31-tetrazapentacyclo[24.3.1.12,5.016,24.017,21]hentriaconta-1(30),2,4,16,18,21,23,26,28-nonaen-6-yl)phenyl]propanoic acid]",A (an ΔTagg value less than or equal to 5 °C is marked “A”),A (a TECC value less than 3 is marked “A”)
"CN1CC(C)(C)COCC(C)(c2cccc(CCC(=O)O)c2)c2cnc([nH]2)-c2cc(ccc2F)Oc2c(F)cc3[nH]ccc3c2CCC1=O (single isomer, unassigned) [Compound 20C, 3-[3-(23,29-Difluoro-6,10,10,12-tetramethyl-13-oxo-8,25-dioxa-3,12,20,31-tetrazapentacyclo[24.3.1.12,5.016,24.017,21]hentriaconta-1(30),2,4,16,18,21,23,26,28-nonaen-6-yl)phenyl]propanoic acid]",C (a value greater than 10 °C and less than or equal to 25 °C is marked “C”),C (a value between 6 and 20 is marked “C”)
"CC1(C)CCCC(C)(c2cccc(CCC(=O)O)c2)c2cnc([nH]2)-c2cc(ccc2F)Oc2c(F)cc3[nH]ccc3c2CCC(=O)NC1 (single isomer, unassigned) [Compound 40A, 3-[3-(23,29-difluoro-6,10,10-trimethyl-13-oxo-25-oxa-3,12,20,31-tetrazapentacyclo-[24.3.1.12,5.016,24.017,21]hentriaconta-1(30),2,4,16,18,21,23,26,28-nonaen-6-yl)phenyl]propanoic acid]",A (an ΔTagg value less than or equal to 5 °C is marked “A”),A (a TECC value less than 3 is marked “A”)
"CC1(C)CCCC(C)(c2cccc(CCC(=O)O)c2)c2cnc([nH]2)-c2cc(ccc2F)Oc2c(F)cc3[nH]ccc3c2CCC(=O)NC1 (single isomer, unassigned) [Compound 40B, 3-[3-(23,29-difluoro-6,10,10-trimethyl-13-oxo-25-oxa-3,12,20,31-tetrazapentacyclo-[24.3.1.12,5.016,24.017,21]hentriaconta-1(30),2,4,16,18,21,23,26,28-nonaen-6-yl)phenyl]propanoic acid]",C (a value greater than 10 °C and less than or equal to 25 °C is marked “C”),B (a value between 3 and 6 is marked “B”)
"CC1(C)CCCCC(C)(c2cccc(CCC(=O)O)c2)c2cnc([nH]2)-c2cc(ccc2F)Oc2c(F)cc3[nH]ccc3c2CCC(=O)NC1 (single isomer, unassigned) [Compound 46A, 3-[3-(24,30-difluoro-6,11,11-trimethyl-14-oxo-26-oxa-3,13,21,32-tetrazapentacyclo[25.3.1.12,5.017,25.018,22]dotriaconta-1(30),2,4,17(25),18(22),19,23,27(31),28-nonaen-6-yl)phenyl]propanoic acid]",A (an ΔTagg value less than or equal to 5 °C is marked “A”),A (a TECC value less than 3 is marked “A”)
"CC1(C)CCCCC(C)(c2cccc(CCC(=O)O)c2)c2cnc([nH]2)-c2cc(ccc2F)Oc2c(F)cc3[nH]ccc3c2CCC(=O)NC1 (single isomer, unassigned) [Compound 46B, 3-[3-(24,30-difluoro-6,11,11-trimethyl-14-oxo-26-oxa-3,13,21,32-tetrazapentacyclo[25.3.1.12,5.017,25.018,22]dotriaconta-1(30),2,4,17(25),18(22),19,23,27(31),28-nonaen-6-yl)phenyl]propanoic acid]",C (a value greater than 10 °C and less than or equal to 25 °C is marked “C”),A (a TECC value less than 3 is marked “A”)
"CN1CC(C)(C)CCCC(C)(c2ccc(CCC(=O)O)cc2)c2cnc([nH]2)-c2cc(ccc2F)Oc2c(F)cc3[nH]ccc3c2CCC1=O (single isomer, unassigned) [Compound 47A, 3-[4-(23,29-Difluoro-6,10,10,12-tetramethyl-13-oxo-25-oxa-3,12,20,31-tetrazapentacyclo-[24.3.1.12,5.016,24.017,21]hentriaconta-1(30),2,4,16,18,21,23,26,28-nonaen-6-yl)phenyl]propanoic acid]",A (an ΔTagg value less than or equal to 5 °C is marked “A”),A (a TECC value less than 3 is marked “A”)
"CN1CC(C)(C)CCCC(C)(c2ccc(CCC(=O)O)cc2)c2cnc([nH]2)-c2cc(ccc2F)Oc2c(F)cc3[nH]ccc3c2CCC1=O (single isomer, unassigned) [Compound 47B, 3-[4-(23,29-Difluoro-6,10,10,12-tetramethyl-13-oxo-25-oxa-3,12,20,31-tetrazapentacyclo-[24.3.1.12,5.016,24.017,21]hentriaconta-1(30),2,4,16,18,21,23,26,28-nonaen-6-yl)phenyl]propanoic acid]",C (a value greater than 10 °C and less than or equal to 25 °C is marked “C”),A (a TECC value less than 3 is marked “A”)
"CN1CC(C)(C)CCCC(C)(c2cccc(CCC(=O)O)c2)c2cnc([nH]2)-c2cc(ccc2F)Oc2c(F)cc3[nH]ccc3c2CCC1=O (single isomer, unassigned) [Compound 49A, 3-[3-(23,29-Difluoro-6,10,10,12-tetramethyl-13-oxo-25-oxa-3,12,20,31-tetrazapentacyclo-[24.3.1.12,5.016,24.017,21]-hentriaconta-1(30),2,4,16,18,21,23,26,28-nonaen-6-yl)phenyl]propanoic acid]",A (an ΔTagg value less than or equal to 5 °C is marked “A”),A (a TECC value less than 3 is marked “A”)

# Reference: patent US20250197420A1, “MACROCYCLIC COMPOUNDS, COMPOSITIONS, AND METHODS OF USING THEREOF” (Sionna Therapeutics Inc., priority 2022, published 2025)
